54 molecules from ChEMBL document CHEMBL1146819, “Synthesis and SAR of 2-arylbenzoxazoles, benzothiazoles and benzimidazoles as inhibitors of lysophosphatidic acid acyltransferase-beta” (Bioorg Med Chem Lett, 2004) can be followed below.

A word on the IC50: it is the concentration that gives 50% inhibition.

Assay [1] concerns the target T1, 1-acyl-sn-glycerol-3-phosphate acyltransferase alpha (Homo sapiens) (UniProt Q99943).
T1 sequence (whole entry): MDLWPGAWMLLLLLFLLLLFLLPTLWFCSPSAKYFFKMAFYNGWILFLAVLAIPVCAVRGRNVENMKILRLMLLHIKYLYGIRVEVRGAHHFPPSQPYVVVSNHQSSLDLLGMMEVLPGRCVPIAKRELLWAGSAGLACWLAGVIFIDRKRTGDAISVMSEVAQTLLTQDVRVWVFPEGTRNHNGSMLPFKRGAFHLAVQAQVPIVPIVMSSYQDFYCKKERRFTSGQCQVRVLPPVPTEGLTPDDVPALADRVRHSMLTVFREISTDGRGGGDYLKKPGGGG
The experiment in a line: Inhibitory activity against human lysophosphatidic acid acyltransferase-alpha (LPAAT-alpha) expressed in Sf9 insect cell membranes at <20 uM; Not active.

Assay [2] concerns the target T2, 1-acyl-sn-glycerol-3-phosphate acyltransferase beta (Homo sapiens, UniProt O15120).
T2 sequence (O15120 whole entry): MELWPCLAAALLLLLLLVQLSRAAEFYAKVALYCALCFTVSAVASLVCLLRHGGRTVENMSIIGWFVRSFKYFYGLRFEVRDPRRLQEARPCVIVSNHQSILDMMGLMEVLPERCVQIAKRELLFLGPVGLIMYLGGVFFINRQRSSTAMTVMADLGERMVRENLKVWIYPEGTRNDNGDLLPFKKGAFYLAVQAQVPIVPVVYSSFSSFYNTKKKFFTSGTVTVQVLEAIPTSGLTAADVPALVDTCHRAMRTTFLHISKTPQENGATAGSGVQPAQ
The experiment in a line: Inhibitory concentration against human lysophosphatidic acid acyltransferase-beta (LPAAT-beta) expressed in Sf9 insect cell membranes.

The source made the active and inactive calls.

For `C#CCOC(=O)Nc1ccc(C)c(-c2nc3cc(Cl)ccc3o2)c1`, the result in assay [1] was inactive. In addition, the 50% inhibitory concentration (IC50) in assay [2] stood at 100 nM.
For `Cc1ccc2oc(-c3cc(NCCCC#N)ccc3Cl)nc2c1`, the concentration for half-maximal inhibition (IC50) in assay [2] is above 5000 nM.
As to `N#CCC(=O)Nc1ccc(Cl)c(-c2nc3cc(Cl)ccc3o2)c1`, the outcome in assay [1] was inactive. Besides, the IC50 in assay [2] was found to be 27 nM.
The corresponding values for `C#CCCOC(=O)Nc1ccc(Cl)c(-c2nc3cc(Cl)ccc3o2)c1` are “inactive” and 75 nM.
The corresponding values for `Cc1ccc2oc(-c3cc(NC(=O)CN=[N+]=[N-])ccc3Cl)nc2c1` are “inactive” and 600 nM.
Take `C#CCOC(=O)Nc1ccc(Cl)c(-c2nc3cc(Cl)ccc3n2C)c1`: the outcome in assay [1] was inactive.
Take `Cc1ccc2oc(-c3cc(NC(=O)CO)ccc3Cl)nc2c1`: in assay [1], the outcome was inactive. In assay [2], this molecule came in with a concentration for half-maximal inhibition (IC50) of 31000 nM.
As to `COC(=O)Nc1ccc(Cl)c(-c2nc3cc(C)ccc3n2C)c1`, the outcome in assay [1] was inactive. The molecule also yielded an IC50 in assay [2] of 11000 nM.
As to `COC(=O)Nc1ccc(C)c(-c2nc3cc(C)ccc3o2)c1`, in assay [1], the result was inactive.
For the molecule `CC#CC(=O)Nc1ccc(Cl)c(-c2nc3cc(Cl)ccc3o2)c1`, the result in assay [1] was inactive. For the same molecule, the IC50 in assay [2] is above 20000 nM.
With `COC(=O)Nc1ccc(Cl)c(-c2nc3ccccc3o2)c1`, the result in assay [1] was inactive.
Still for that read-out and setting: as for `COC(=O)Nc1ccc(Cl)c(-c2nc3cc(Cl)ccc3s2)c1`, the entry is “inactive”.
Turning to `COC(=O)Nc1ccc(Cl)c(-c2nc3ccc(C)cc3n2C)c1`, the outcome in assay [1] was inactive. Moreover, in assay [2], the IC50 is above 20000 nM.
The corresponding values for `Cc1ccc2oc(-c3cc(NC=O)ccc3Cl)nc2c1` are “inactive” and above 5000 nM.
In the same order, the values of `CN(C)CC(=O)Nc1ccc(Cl)c(-c2nc3cc(Cl)ccc3o2)c1` are “inactive” and above 5000 nM.
In the same order, the values of `CCCC(=O)Nc1ccc(Cl)c(-c2nc3cc(C)ccc3o2)c1` are “inactive” and 2500 nM.
For the molecule `Cc1ccc2oc(-c3cc(NC(=O)OC(C)C)ccc3Cl)nc2c1`, the result in assay [1] was inactive. The molecule further returned an IC50 in assay [2] of 16000 nM.
The corresponding values for `C=CCOC(=O)Nc1ccc(Cl)c(-c2nc3cc(C)ccc3o2)c1` are “inactive” and 1400 nM.
The corresponding values for `COC(=O)Nc1ccc(F)c(-c2nc3cc(C)ccc3o2)c1` are “inactive” and above 64000 nM.
Regarding `C#CCOC(=O)Nc1ccc(Cl)c(-c2nc3cc(C)ccc3o2)c1`, the result in assay [1] was inactive.
As for `COC(=O)Nc1cccc(-c2nc3cc(C)ccc3o2)c1`, the outcome in assay [1] was inactive. The IC50 in assay [2] was above 64000 nM.
The corresponding values for `CNCC(=O)Nc1ccc(Cl)c(-c2nc3cc(Cl)ccc3o2)c1` are “inactive” and above 5000 nM.
The corresponding values for `C#CCCC(=O)Nc1ccc(Cl)c(-c2nc3cc(C)ccc3o2)c1` are “inactive” and 500 nM.
The corresponding values for `COC(=O)Nc1ccc(Cl)c(-c2nc3c(C)cccc3o2)c1` are “inactive” and 500 nM.
Turning to `C#CCCC(=O)Nc1ccc(Cl)c(-c2nc3cc(Cl)ccc3o2)c1`, the result in assay [1] was inactive. In assay [2], this molecule came in with a half-inhibitory concentration (IC50) of 100 nM.
As for `C#CCOC(=O)Nc1ccc(Cl)c(-c2nc3c(C)cccc3o2)c1`, the outcome in assay [1] was inactive.
For the molecule `COC(=O)Nc1ccc(Cl)c(-c2nc3cc(C)ccc3o2)c1`, the outcome in assay [1] was inactive. The IC50 in assay [2] came out at 1000 nM.
The corresponding values for `COC(=O)Nc1ccc(Cl)c(-c2nc3cc(C(F)(F)F)ccc3o2)c1` are “inactive” and 800 nM.
As for `COC(=O)Nc1ccc(Cl)c(-c2nc3cc(Cl)ccc3o2)c1`, the result in assay [1] was inactive.
The same measure, in the same setting: the result for `N#CCC(=O)Nc1ccc(Cl)c(-c2nc3cc(Cl)ccc3s2)c1` reads “inactive”.
On to `COC(=O)Nc1ccc(Cl)c(-c2nc3ccc(C)cc3o2)c1`, for which the result in assay [1] was inactive. Also, in assay [2], the IC50 came out at 400 nM.
In the same order, the values of `Cc1ccc2oc(-c3cc(NC(=O)CC#N)ccc3Cl)nc2c1` are “inactive” and 100 nM.
The corresponding values for `Cn1c(-c2cc(NC(=O)CC#N)ccc2Cl)nc2cc(Cl)ccc21` are “inactive” and 300 nM.
As for `N#CCC(=O)Nc1ccc(Cl)c(-c2nc3cc(C(F)(F)F)ccc3s2)c1`, in assay [1], the outcome was inactive. The molecule also displayed an IC50 in assay [2] of 50 nM.
In the case of `COC(=O)Nc1ccc(OC)c(-c2nc3cc(C)ccc3o2)c1`, in assay [1], the result was inactive. In assay [2], this molecule came in with an IC50 of 64000 nM.
The corresponding values for `COC(=O)Nc1ccc(C)c(-c2nc3cc(Cl)ccc3o2)c1` are “inactive” and 550 nM.
As to `Cc1ccc(NC(=O)CC#N)cc1-c1nc2ccccc2s1`, in assay [1], the result was inactive. In assay [2], half-maximal inhibition (IC50) required 70 nM.
In the case of `CC#CC(=O)Nc1ccc(Cl)c(-c2nc3cc(C)ccc3o2)c1`, the result in assay [1] was inactive. This molecule had an IC50 in assay [2] above 20000 nM.
The corresponding values for `Cc1ccc2oc(-c3cc(NC(=O)c4ccccc4)ccc3Cl)nc2c1` are “inactive” and 40000 nM.
The corresponding values for `COC(=O)Nc1ccc(Cl)c(-c2nc3cc(C(=O)O)ccc3o2)c1` are “inactive” and above 20000 nM.
The corresponding values for `CC#CCOC(=O)Nc1ccc(Cl)c(-c2nc3cc(Cl)ccc3o2)c1` are “inactive” and 75 nM.
`C#CCOC(=O)Nc1ccc(C)c(-c2nc3cc(Cl)ccc3s2)c1`: the outcome in assay [1] was inactive. This molecule also gave an IC50 in assay [2] of 15 nM.
The corresponding values for `CCOC(=O)Nc1ccc(Cl)c(-c2nc3cc(C)ccc3o2)c1` are “inactive” and 1500 nM.
Regarding `C#CCOC(=O)Nc1ccc(Cl)c(-c2nc3cc(C(F)(F)F)ccc3o2)c1`, in assay [1], the outcome was inactive.
With `COC(=O)Nc1ccc(Cl)c(-c2nc3cc(Cl)ccc3n2C)c1`, the outcome in assay [1] was inactive. Further, in assay [2], inhibition was half-maximal at 650 nM (IC50).
For the molecule `COC(=O)Nc1ccc(Cl)c(-c2nc3cc(O)ccc3o2)c1`, the result in assay [1] was inactive. For the same molecule, the half-inhibitory concentration (IC50) in assay [2] was above 20000 nM.
Turning to `COC(=O)Nc1ccc(Cl)c(-c2nc3cc(C(F)(F)F)ccc3s2)c1`, the result in assay [1] was inactive.
On to `C#CCOC(=O)Nc1ccc(Cl)c(-c2nc3cc(C(F)(F)F)ccc3[nH]2)c1`, for which the outcome in assay [1] was inactive. This molecule registered an IC50 in assay [2] of 5200 nM.
The corresponding values for `COC(=O)Nc1ccc(Cl)c(-c2nc3ccc(C)cc3s2)c1` are “inactive” and above 64000 nM.
The corresponding values for `COC(=O)Nc1ccc(Cl)c(-c2nc3c(C)cccc3s2)c1` are “inactive” and 9000 nM.
The molecule `Cc1cc(-c2nc3ccccc3s2)ccc1N` came in with an IC50 in assay [2] above 40000 nM.
As for `C#CCOC(=O)Nc1ccc(Cl)c(-c2nc3cc(C(F)(F)F)ccc3n2C)c1`, the result in assay [1] was inactive. In assay [2], this molecule displayed an IC50 of 120 nM.
Turning to `CCCOC(=O)Nc1ccc(Cl)c(-c2nc3cc(C)ccc3o2)c1`, the outcome in assay [1] was inactive. Further, the 50% inhibitory concentration (IC50) in assay [2] was determined as 12000 nM.
The corresponding values for `CC(=O)Nc1ccc(Cl)c(-c2nc3cc(C)ccc3o2)c1` are “inactive” and 2500 nM.
